Test results published in ChEMBL document CHEMBL1201862, “PubChem BioAssay data set” (2004).
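Compound exposure: 48 hours, 5 concentrations, 96-well plates. At the GI50, growth is halved.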 Activity calls are given as the source filed them. Rule as the data show it: active = GI50 up to about 1.1 µM and inactive = higher.

Key:
Assay in all cases: NCI tumour cell line growth inhibition, 48 h
CCRF-CEM = test system: CCRF-CEM
SK-MEL-5 = test system: SK-MEL-5
Hs-578T = test system: Hs-578T
SK-OV-3 = test system: SK-OV-3
CAKI-1 = test system: CAKI-1
OVCAR-8 = test system: OVCAR-8
MOLT-4 = test system: MOLT-4
SK-MEL-2 = test system: SK-MEL-2
A549 = test system: A549
OVCAR-5 = test system: OVCAR-5
K562 = test system: K562
UACC-62 = test system: UACC-62
RXF 393 = test system: RXF 393
SF-268 = test system: SF-268
SNB-75 = test system: SNB-75
T47D = test system: T47D
KM12 = test system: KM12
M14 = test system: M14
PC-3 = test system: PC-3
U-251 = test system: U-251

Structure (SMILES)	GI50 (CCRF-CEM)	GI50 (SK-MEL-5)	GI50 (Hs-578T)	GI50 (SK-OV-3)	GI50 (CAKI-1)	GI50 (OVCAR-8)	GI50 (MOLT-4)	GI50 (SK-MEL-2)	GI50 (A549)	GI50 (OVCAR-5)	GI50 (K562)	GI50 (UACC-62)	GI50 (RXF 393)	GI50 (SF-268)	GI50 (SNB-75)	GI50 (T47D)	GI50 (KM12)	GI50 (M14)	GI50 (PC-3)	GI50 (U-251)
Cc1ccccc1-n1c(=O)c2ncn(C3CCCO3)c2n(-c2ccccc2C)c1=S (stereo unspecified)	> 100 µM (inactive)	> 100 µM (inactive)	> 100 µM (inactive)	> 100 µM (inactive)	> 100 µM (inactive)	> 100 µM (inactive)	> 100 µM (inactive)	> 100 µM (inactive)	> 100 µM (inactive)	> 100 µM (inactive)	> 100 µM (inactive)	> 100 µM (inactive)	> 100 µM (inactive)	> 100 µM (inactive)	79.4 µM (inactive)	> 100 µM (inactive)	> 100 µM (inactive)	> 100 µM (inactive)		
Cc1ccc(N2C(=O)C3c4[nH]c5ccc(C)cc5c4C4CCC(C(C)(C)C)CC4C3C2=O)cc1 (stereo unspecified)	7.59 µM (inactive)	32.1 µM (inactive)	10.4 µM (inactive)		17.6 µM (inactive)	9.62 µM (inactive)	2.48 µM (inactive)	35.8 µM (inactive)	13.6 µM (inactive)	11.3 µM (inactive)	4.05 µM (inactive)	16.2 µM (inactive)		11.9 µM (inactive)		7.5 µM (inactive)	18 µM (inactive)	31 µM (inactive)	16.6 µM (inactive)	10.9 µM (inactive)
CCOC(=O)[C@@H]1ON2O[C@@H](OC3CCCC3(c3ccccc3)c3ccccc3)C[C@H]3OC(=O)[C@@H]1C32 (stereo partly specified)	27.5 µM (inactive)	32 µM (inactive)	31.4 µM (inactive)	86.5 µM (inactive)	17.2 µM (inactive)	32.8 µM (inactive)	29.9 µM (inactive)		< 0.01 µM (active)	20.9 µM (inactive)		19.1 µM (inactive)	17.1 µM (inactive)	28.7 µM (inactive)	32.4 µM (inactive)	22.3 µM (inactive)	15.6 µM (inactive)	16.6 µM (inactive)		56.4 µM (inactive)
CCOC(=O)C1=CN2C(=N[C@H]3CCCC[C@@H]32)NC1=O	> 100 µM (inactive)	> 100 µM (inactive)	> 100 µM (inactive)	> 100 µM (inactive)	> 100 µM (inactive)	> 100 µM (inactive)	> 100 µM (inactive)	> 100 µM (inactive)	> 100 µM (inactive)	> 100 µM (inactive)	> 100 µM (inactive)	> 100 µM (inactive)		> 100 µM (inactive)	> 100 µM (inactive)	> 100 µM (inactive)	> 100 µM (inactive)	> 100 µM (inactive)	> 100 µM (inactive)	> 100 µM (inactive)
C=C1C(NC)CCC23CC24CCC2(C)C(C(C)=O)C(O)CC2(C)C4CCC13 (stereo unspecified)	54.8 µM (inactive)	> 100 µM (inactive)	> 100 µM (inactive)	59.7 µM (inactive)	> 100 µM (inactive)	> 100 µM (inactive)	> 100 µM (inactive)	> 100 µM (inactive)	> 100 µM (inactive)	> 100 µM (inactive)	71.3 µM (inactive)	> 100 µM (inactive)		> 100 µM (inactive)	49.4 µM (inactive)	> 100 µM (inactive)	56.1 µM (inactive)	> 100 µM (inactive)	78 µM (inactive)	> 100 µM (inactive)
COc1ccc2[nH]c3c(c2c1)CCn1c-3nc2ccccc2c1=O	> 25 µM (inactive)	> 25 µM (inactive)	> 25 µM (inactive)	> 25 µM (inactive)		> 25 µM (inactive)	> 25 µM (inactive)		> 25 µM (inactive)	> 25 µM (inactive)	> 25 µM (inactive)			> 25 µM (inactive)	> 25 µM (inactive)	> 25 µM (inactive)	> 25 µM (inactive)	> 25 µM (inactive)	> 25 µM (inactive)	> 25 µM (inactive)
